Assay results published in patent US20190358242A1, “COMPOSITIONS, KITS, AND METHODS TO INDUCE ACQUIRED CYTORESISTANCE USING STRESS PROTEIN INDUCERS” (FRED HUTCHINSON CANCER RESEARCH CENTER, priority 2017, published 2019).
“And” between values parts separate entries of the source, which are not always exact repeats. Equal values may be shown once.

Tests used:
[1] = tested on: HO-1 protein; assay: Renal cortex HO-1 protein (ELISA) after IV myoglobin, SnPP or both; assay type: in vivo, CD-1 mice; settings: 4 hr IV; 1 mg myoglobin, 1 μmole SnPP
Source text: (§1) The Glycerol Model of AKI. This is a widely used model of rhabdomyolysis-induced AKI that has been employed worldwide for 50 years. The model was used to test whether prophylactic interventions confer protection against AKI. Basically, the protocol is as follows: Male CD-1 mice (35-45 grams), obtained from Charles River Laboratories, Wilmington, Mass. were studied. Mice were maintained under standard vivarium conditions and generally housed for 1-3 weeks prior to study. The mice were placed in a cylindrical restraining cage, and then were given a tail vein injection of the test substances (see below) or test substance vehicle. The mice were then returned to their cages. Eighteen hours (hrs) later, the mice were briefly anesthetized by isoflurane inhalation, and given an intramuscular injection of hypertonic (50%) glycerol in a dose of 9 ml/Kg body weight. The dose is divided in two, with half injected into the muscle of each of the hind limbs. The mice were then returned to their cages. Eighteen hrs later, the mice were deeply anesthetized with pentobarbital (50-100 mg/Kg), the abdominal cavity was opened through a midline abdominal incision, a blood sample was obtained from the abdominal vena cava and the kidneys were resected. A kidney cross section was obtained and fixed in formalin for subsequent histologic analysis. The terminal blood samples were analyzed for BUN and creatinine, using commercially available assay kits. The remaining kidney tissue was subjected to cortical dissection, and the cortical tissues were then extracted for protein and RNA. The protein samples were saved for analysis of HO-1 levels, and the RNA samples were subjected to RT-PCR to quantify HO-1 mRNA as well as levels of other stress gene mRNAs (e.g. NGAL, haptoglobin, hemopexin, hepicidin).
(§2) Myoglobin+SnPP: To 5 mg of dry myoglobin was added 0.9 ml of PBS+0.1 ml of a stock SnPP solution (50 umole/ml). The resulting final concentrations were 5 mg/ml myoglobin+5 umoles/ml of SnPP. The tail vein was injected with 200 ul of this solution, which equals 1 mg myoglobin+1 umole SnPP. […]
Four hr post myoglobin vs myoglobin+SnPP vs SnPP alone experiments. To confirm that the myoglobin+SnPP has a synergistic effect in inducing HO-1 mRNA and HO-1 protein levels, each of the above combinations have been administered alone via tail vein injection. Four hrs later, the mice were sacrificed as noted above and the kidneys were harvested for assessment of HO-1 mRNA and protein levels. For additional information regarding methods, see Zager et al., Am J Physiol Renal Physiol. 2014 Jul. 30. Pii.
Given that it is just 4 hrs post injection, the mRNA increases are greater than the protein increases as protein synthesis must follow the mRNA induction-requiring more time.

[2] = tested on: Mgb-exposed cultured proximal tubule (HK-2) cells; settings: Zager & Burkhart, Kidney Int 1997; cited from earlier work
[3] = tested on: HO-1 mRNA; assay: SnPP vs. SnMeP: renal cortical HO-1 mRNA induction (RT-PCR); assay type: in vivo, mice; settings: 1 umole, 4 hrs post injection, n 3
Source text: FIG. 28. Comparison of SnPP vs. SnMeP effects on renal cortical HO-1 and haptoglobin mRNA induction 4 hrs post agent injection. Mice received either 1 umole tin protoporphyrin (SnPP), tin mesoporphyrin (SnMeP), or vehicle (n, 3 each) and 4 hrs renal cortical RNA was extracted and subjected to RT-PCR.

[4] = tested on: haptoglobin mRNA; assay: Kidney haptoglobin mRNA (RT-PCR); assay type: in vivo, CD-1 mice
Description: (§3) Thirty-two mice were divided into 4 equal groups: (1) control mice; (2) mice treated with 1 mg of N-Mgb injection (as a bolus through the tail vein); (3) mice treated with […] of SnPP (via tail vein); and (4) mice treated with combined N-Mgb 1 SnPP. After either 4 hours (n=16) or 18 hours (n=16), the mice were deeply anesthetized with pentobarbital (50 mg/kg), the abdomen was opened through a midline abdominal incision, and the kidneys were removed. To determine potential effects on extrarenal organs, a liver lobe and the heart were also removed. The tissues were iced and then extracted for protein and RNA (RNeasy Plus Mini; Qiagen, Valencia, Calif.) and subjected to enzyme linked immunosorbent assay (ELISA) and reverse transcriptase polymerase chain reaction (RT-PCR) for HO-1, haptoglobin, and IL-10 protein and messenger RNAs (mRNAs). Zager et al. J Am Soc Nephrol 2014; 25:998-1012; Zager et al. Am J Physiol 2012; 303:F139-48. As an assessment of renal function, control mice and the 18 hour after N-Mgb+SnPP-treated mice had blood urea nitrogen (BUN) and plasma creatinine levels measured. Additionally, transverse 10% formalin fixed kidney sections ([…]) were cut and stained with hematoxylin and eosin (H&E) and periodic acid Schiff (PAS) to further assess potential injury.

[5] = tested on: haptoglobin protein; assay: Liver haptoglobin protein (ELISA); assay type: in vivo, CD-1 mice; set-up: unit not given beside the values
Description: as §3

[6] = tested on: HO-1 mRNA; assay: Renal HO-1 mRNA (RT-PCR, HO-1/GAPDH) after IV myoglobin, SnPP or both; assay type: in vivo, CD-1 mice; settings: kidney, 4 hr post IV injection
Source text: as §1, §2
[…] To confirm that the myoglobin+SnPP has a synergistic effect in inducing HO-1 mRNA and HO-1 protein levels, each of the above combinations have been administered alone via tail vein injection. […] For additional information regarding methods, see Zager et al., Am J Physiol Renal Physiol. 2014 Jul. 30. Pii.

C=Cc1c2[n-]c(c1C)/C=c1\[n-]/c(c(C)c1C=C)=C\c1[n-]c(c(CCC(=O)O)c1C)/C=c1\[n-]c(c(C)c1CCC(=O)O)=C2.[Sn+4] [SnPP, tin protoporphyrin]
Cortex HO-1 protein (ELISA), Average [1]: 34.4 ng HO-1/mg protein
Cortex HO-1 protein (ELISA), individual mice [1]: 31.5 ng HO-1/mg protein and 20.5 ng HO-1/mg protein and 53.6 ng HO-1/mg protein and 32.2 ng HO-1/mg protein
Reduction of Mgb toxicity [2]: ≤ 85%
Renal cortical HO-1 mRNA induction [3]: raised
Kidney mRNA Haptoglobin ([4]; 4 h after IV injection, N-Mgb 1 mg, SnPP 1 mmol [sic]): 0.19 ± 0.01
Kidney mRNA cortex Haptoglobin ([4]; 18 h after IV injection): 0.23 ± 0.08
Liver protein Haptoglobin ([5]; 4 h after IV injection): 130.0 ± 8.9
Liver protein Haptoglobin ([5]; 18 h after IV injection): 212.0 ± 63.6
HO-1/GAPDH mRNA, Average [6]: 6.94
HO-1/GAPDH mRNA, individual mice [6]: 9.72 and 8.25 and 6.95 and 2.85
